Source: a melting point compilation (Tetko et al.; mined from patent text by program, amines drawn as free bases though some values may be those of a salt)

| SMILES | melting point [°C] |
| --- | --- |
| Cc1nccc2c1ccc(=O)n2C | 203 to 205 |
| O=Cc1c2ccccc2cc2c(Cl)cccc12 | 129 to 131 |
| COc1ccc(-c2nc(NC(C)=O)sc2-c2ccnc(NC(C)=O)c2)cc1 | 262 to 264 |
| COc1ccc(OC)c(S(=O)(=O)n2c(CCC(=O)O)cc3cc(Cl)ccc32)c1 | 185 to 189 |
| C=CC(=O)N(C)c1cccc2c(=O)c(C)c(-c3ccccc3)oc12 | 136 to 137 |
| CCCNC(=O)Cn1c(-c2ccc(Cl)cc2)nc2cccnc21 | 220 to 221 |
| C=CCOc1ccccc1S(N)(=O)=O | 104 to 105 |
| CC(C)(C)c1ccc(N)c([N+](=O)[O-])c1 | 107 to 108 |
| CCOCc1nc2cnc3cc(Br)ccc3c2n1C[C@@H]1COC(C)(C)O1 | 90 to 91 |
| O=C(O)c1cn(-c2ccc(F)cc2)c2c(F)c(F)c(F)cc2c1=O | 261 to 263 |
| O=C1c2c(Cl)cccc2-n2cnc(-c3nc(C4CCCC4)no3)c2[C@@H]2CCCN12 | 177 to 178 |
| Fc1ccc(C=Nn2cncn2)cc1 | 118 to 120 |
| COc1cccc(OCCCN2CCC(C(O)(c3ccc(F)cc3)c3ccc(F)cc3)CC2)c1 | 107 to 108 |
| CN(C)CC1CCc2cc(NC(=O)c3ccc(-c4ccc(Cl)c(Cl)c4)cc3)ccc2C1 (stereo unspecified) | 143 to 145 |
| O=C(O)C1=Cc2cc(C(F)(F)F)ccc2OC1C(F)(F)F (stereo unspecified) | 144 to 145 |
| O=C(CCCN1CCCC1)NC(Cc1c[nH]c2ccccc12)C(=O)CCc1cc(C(F)(F)F)cc(C(F)(F)F)c1 (stereo unspecified) | 99 to 100 |
| COc1ccc(-n2c(N)cc(=O)nc2Nc2ccccc2)cc1 | 180 to 190 |
| COC(=O)CCCc1ccc(C(=O)C=Cc2ccccc2)cc1 | 43 to 44 |
| O=C1NC(=O)C2(N1)C(=O)N(Cc1ccc(Cl)c(Cl)c1)c1ccccc12 (stereo unspecified) | 269 to 271 |
| O=C(O)c1c[nH]c2nc(NCc3ccccc3)nn2c1=O | 240 to 245 |
| C[C@H]1CCCC(C)(C)[C@@H]1[C@H](O)c1ccc(OC(F)(F)F)c(F)c1 | 60.3 to 62.2 |
| Cc1nc(-n2cnn(CCO)c2=O)sc1C(=O)NCc1cccnc1 | 201 to 202 |

| SMILES | melting point [°C] |
| --- | --- |
| Fc1ccc2c(c1)nc(Cl)c1nncn12 | 305 to 308 |
| CCOC(=O)c1cn(C2CC2)c2c(C)c(F)c(F)c([N+](=O)[O-])c2c1=O | 260 to 263 |
| CCCCCCCCNC1=NS(=O)(=O)c2cc(Cl)cnc2N1 | 170 to 175 |
| C=CCN1CCC23CC(=O)CCC2(O)C1Cc1cccc(OC)c13 (stereo unspecified) | 166 to 167 |
| CC12CCC(C(=Cc3ccc(OCCO)cc3)C1=O)C2(C)C (stereo unspecified) | 68 |
| Cc1nc(N2CCN(CC3CC3)C2=O)sc1C(=O)NCc1cncc(F)c1 | 144 to 145 |
| Cc1c(-c2ccc(C(=O)c3ccc(-c4sc5ccccc5c4C)nc3)cn2)sc2ccccc12 | 120 to 121 |
| Cc1nc2c(N)nc3ccccc3c2n1OCCOc1ccccc1 | 237 to 239 |
| CCC1Cc2ccc(NC(=N)c3cccs3)cc2CN1C (stereo unspecified) | 125 to 126 |
| CCCCCC(O)CCCOC(=O)c1ccccc1 (stereo unspecified) | 90 to 93 |
| CCOc1ccc(OC(CCC(=O)O)C2(O)CN3CCC2CC3)cc1 (stereo unspecified) | 75 to 77 |
| C=Cc1ccc(C(=O)Oc2ccc(NS(C)(=O)=O)cc2)cc1 | 172 to 173 |
| CCOC(=O)c1cc2cc(Oc3ccc(S(C)(=O)=O)cc3)cc(O)c2[nH]1 | 197 to 198 |
| CCn1cc(-c2ccc(O)cc2)nc1SC | 218 |
| Cc1nn(-c2ccc(F)cc2)cc1C(=O)Nc1ccc(CC(C)C)c(C#N)c1 | 178 to 179 |
| O=C(Cl)c1ccc2c(c1)C(C(F)(F)F)(C(F)(F)F)c1cc(C(=O)Cl)ccc1O2 | 216 to 218 |
| COC(=O)c1ccc(Oc2ccc(O)cc2)cc1 | 130 to 134 |
| COc1cc(OC)cc(N2CCN(C(=O)Nc3cc(-c4ccccn4)nc4ccccc34)CC2)c1 | 97 to 98 |
| COCc1ccc([C@H]2CC[C@H]([C@H]3CC[C@H](C=O)CC3)CC2)cc1F | 52 to 54 |
| COP(=O)(COC1C=CC(n2cnc3c(N)ncnc32)O1)OC (stereo unspecified) | 146 to 149 |
| CC(C)NC(=O)C(F)(F)C(F)(F)F | 54 to 56 |
| Cc1nc(Nc2ccccc2)nc(C#N)c1C | 181 to 184 |

| SMILES | melting point [°C] |
| --- | --- |
| CNC(=O)Oc1ccccc1OC | 90 to 92 |
| COC(=O)CCCc1cc2nc(Cl)ccc2n1S(=O)(=O)c1ccc2c(c1)OCCN2C | 106 to 110 |
| CCOC(=O)c1cc2cccc(N(C)S(=O)(=O)c3cccs3)c2n1COC | 143 to 145 |
| COC(=O)CCc1nsc2ccc(-n3c(=O)cc(C(F)(F)F)n(C)c3=O)cc12 | 176 to 178 |
| CS(=O)(=O)Oc1ccc(C=O)cc1 | 61 to 63 |
| CCSc1nc(Nc2ccc(F)cc2F)c(C(=O)OC)cc1F | 113 to 114 |
| NC1c2ccccc2CC12C(=O)Nc1ccccc12 (stereo unspecified) | 195 to 197 |
| C=CCn1c(NCCOc2ccccc2)nc(N2CCc3ccccc3CC2)c(C#N)c1=O | 157 to 160 |
| CCCCCS(=O)(=O)NC(=O)/C=C/c1cc(OCCCC)nn1Cc1ccc(C(F)(F)F)cc1 | 159 to 160 |
| Nc1ccc(/C=C/c2c(F)cccc2F)cc1 | 74 to 75 |
| CC(O)C(=O)c1ccc(C(=O)Nc2ccccc2N)c(N)c1 (stereo unspecified) | 198 |
| CC1(C)Cc2c(Cl)cccc2C1N=CNC#N (stereo unspecified) | 173 to 175 |
| CN1CCN(c2ccc(-c3cc(-c4c(-c5ccccn5)nc5ccccn45)ccn3)cc2)CC1 | 150 |
| Cc1cc(S(=O)(=O)Nc2ccc(Cl)cc2)c2c(C)ccc(C(C)C)cc1-2 | 134 to 135 |
| O=C(O)CCCCCCC(O)C(=O)O (stereo unspecified) | 86 to 92 |
| CC(C)(C)OC(=O)NC(=N)NC(=O)OC(C)(C)C | 144 |
| NC[C@@H]1CNc2cccc(-c3ccccc3C(F)(F)F)c2O1 | 180 |
| CSC1(CC(=O)O)CCC1 | 43 to 46 |
| COC(=O)c1nn(-c2cccc(C(F)(F)F)c2)c(=O)cc1OC | 124 to 125 |
| Cc1c[nH]c2c1CC1CNCCC1C2 (stereo unspecified) | 151 to 153 |
| CC(=O)N(C(C)=O)c1c(C#N)cnn1-c1ccc(Cl)c(Cl)c1Cl | 163 to 165 |
| O=c1nc(-c2ccc(CO)cn2)sc2ccccc12 | 247 to 248 |

| SMILES | melting point [°C] |
| --- | --- |
| C/C(=C(\C#N)C(N)=S)N1CCCN(c2ccc(F)c(Cl)c2)CC1 | 148 to 150 |
| O=S1NC(Cc2coc3ccccc23)=NO1 (stereo unspecified) | 138 to 140 |
| CN1CCCCC1CCc1ccccc1NC(=O)c1ccc([N+](=O)[O-])cc1 (stereo unspecified) | 162 to 164 |
| NC(=O)c1c(C(=O)O)cnn1-c1ccc(Cl)cc1 | 249 to 250 |
| Cc1ccc(S(=O)(=O)OCCCCCCn2c3c(c4ccccc4c2=O)C(=O)c2ccccc2-3)cc1 | 146 to 149 |
| COCC(=O)N[C@@H]1CCOc2ccccc21 | 109 to 112 |
| C=CCOc1cccc(C(=O)CCC(=O)OC)c1 | 30 to 32.5 |
| O=C1NCCc2ccc(OCCCCN3CCN(c4cccc5c4CCC5)CC3)nc2N1 | 70 to 72 |
| O=C(O)CN1C(=O)C(=Cc2cccnc2)SC1=S | 261 to 264 |
| CCCCCCCCCCCC1=NCCO1 | 71 to 74 |
| COC1(c2nc3ccccc3s2)C=CC(=O)C=C1 | 123 |
| CC1(C)OC(=O)Nc2ncc(-c3cccc(Cl)c3)cc21 | 214 to 215 |
| COC(=O)Cc1cccc(NC(=O)NCC(=O)N2[C@@H](C(=O)N3CCCC3)C[C@H](S(=O)(=O)c3ccccc3)[C@H]2c2ccccc2F)c1 (racemic) | 156 |
| CC(C)(C)OC(=O)CN1CCC(CNC(=O)N2CCN(C3CCN(C(=O)OC(C)(C)C)CC3)CC2)CC1 | 131 to 133 |
| Cc1cc(C)c(CCCC(C)(C)O)c(O)c1 | 128 |
| C=C=CC1(NC(=O)c2ccccc2)CCCNC1=O (stereo unspecified) | 203 to 204 |
| O=C(O)Cc1cc(Br)ccc1OCc1ccccc1 | 87 to 88.5 |
| O=C1c2ccccc2C(Nc2ccc(Cl)cc2)N1CCCN1CC=C(c2ccccc2)CC1 (stereo unspecified) | 188 |
| Cc1nc2cc(C(F)(F)F)c(Cl)c(N)c2n1N(C)C | 173 to 174 |
| CCC(=O)Nc1cc(-c2ccnc(Nc3cccc(Cl)c3)n2)ccn1 | 215 to 216 |
| O=C(NN1CCCC1=O)C(O)=CC(=O)c1cc(Cc2ccc(F)cc2F)cn(Cc2ccc(F)cc2)c1=O | 87 to 88 |
| Fc1ccc(-c2cc3ccccc3[nH]c2=S)cc1 | 259 to 262 |

| SMILES | melting point [°C] |
| --- | --- |
| Cn1cc(C(=O)F)c(C(F)F)c1 | 53 to 54 |
| O=C(O)C1CCc2c(-c3ccc(Cl)cc3)noc2C1 (stereo unspecified) | 227 to 228 |
| CS(=O)(=O)c1ccc(-c2oc3ccccc3c(=O)c2-c2ccccn2)cc1 | 203 to 204 |
| COc1ccc2c(CCN3CCCCC3=O)c[nH]c2c1 | 146 |
| CCSC1=NCC(=O)N1c1cc(Cl)ccc1C | 137 to 139 |
| CS(=O)(=O)Nc1ccc(Nc2nc(NC3CCCC3)c3nc[nH]c3n2)cc1 | 261 to 265 |
| O=C1c2cc(O)ccc2OC12CC2 | 180 to 185 |
| Clc1ccc(NC2=NCCN2)c(Cl)c1 | 138 to 139 |
| CCCC1c2c(ccc(C(C)=O)c2O)OC1COc1ccc(CC(=O)O)cc1 (stereo unspecified) | 104 to 106 |
| COc1c(N2CCC(N)C(C)(C)C2)c(F)c(N)c2c(=O)c(C(=O)O)cn(C3CC3)c12 (stereo unspecified) | 205 |
| COc1cc2c(cc1OC)C(C)CC(N)C(=O)N2 (stereo unspecified) | 103 |
| COC(=O)C(C)(C)Oc1cc(C)c(C)c(Br)c1C | 66 to 68 |
| COc1ccc(-n2nc(CCCNO)cc2-c2ccc(Cl)cc2)cc1 | 91 to 93 |
| C/C(=C(\C#N)C(=S)/N=C/N(C)C)N1CCCN(c2ccc(C)c(F)c2)CC1 | 254 to 256 |
| CC(C)(Cn1cnc2c(N)nc3ccccc3c21)CC1(C)OCCO1 | 153 to 155 |
| Cc1ccccc1C1C(=O)CC2CCCCC2C1=O (stereo unspecified) | 165 to 167 |
| COc1cc2ncnc(N3CCC(C(C)(O)CN4CCCS4(=O)=O)CC3)c2cc1OC (stereo unspecified) | 173 to 174 |
| CS(=O)(=O)Nc1ccc(C#N)cc1C(O)c1ccc(F)cc1F (stereo unspecified) | 133 to 135 |
